These compounds were tested against T1, FGT-1 (Caenorhabditis elegans, UniProt O44827) (assay: inhibition of 3H-2-DG uptake in Xenopus oocytes). Settings: read-out: % inhibition at 30 mM.
T1 construct: gene fdgt-1; full-length fgt-1a cDNA in pSP64T, untagged, cRNA-injected Xenopus laevis oocytes
T1 sequence (O44827 1-492 isoform O44827-2): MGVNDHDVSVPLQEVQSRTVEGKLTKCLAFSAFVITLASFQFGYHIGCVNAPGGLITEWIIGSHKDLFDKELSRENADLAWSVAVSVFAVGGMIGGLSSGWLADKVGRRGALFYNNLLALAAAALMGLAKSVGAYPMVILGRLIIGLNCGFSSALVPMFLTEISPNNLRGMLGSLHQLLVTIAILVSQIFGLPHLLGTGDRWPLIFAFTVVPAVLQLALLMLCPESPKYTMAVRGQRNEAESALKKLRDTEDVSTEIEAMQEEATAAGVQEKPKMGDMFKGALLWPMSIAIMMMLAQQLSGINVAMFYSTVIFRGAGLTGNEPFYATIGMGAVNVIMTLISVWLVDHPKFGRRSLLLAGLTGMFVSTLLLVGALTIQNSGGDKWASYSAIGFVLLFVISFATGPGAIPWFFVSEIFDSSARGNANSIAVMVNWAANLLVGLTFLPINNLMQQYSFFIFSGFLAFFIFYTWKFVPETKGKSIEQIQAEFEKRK
Assay type: cell-based

inhibition at 30000 µM [%]	SMILES
77	CO[C@H]1[C@H](O)[C@@H](CO)OC(O)[C@@H]1O (stereo partly drawn) [3-O-methylglucose]
42	OCC1(O)OC[C@@H](O)[C@@H](O)[C@@H]1O (stereo partly drawn) [D-fructose]
79	OC[C@H]1OC(O)[C@H](O)[C@@H](O)[C@@H]1O (stereo partly drawn) [D-glucose]
33	OC[C@H]1OC(O)[C@H](O)[C@@H](O)[C@H]1O (stereo partly drawn) [D-galactose]
79	OC[C@H]1OC(O)[C@@H](O)[C@@H](O)[C@@H]1O (stereo partly drawn) [D-mannose]

Each compound was assayed against T2, hGLUT1 (Homo sapiens, UniProt P11166) (assay: 3H-2-DG uptake in cRNA-injected Xenopus oocytes). Settings: 10 mM 2-DG, 15 min, pH 7.6; positive control; labelled compound as tracer.
T2 construct: gene SLC2A1; pSP64T-hGLUT1, cRNA-injected Xenopus laevis oocytes
T2 sequence (P11166 1-492): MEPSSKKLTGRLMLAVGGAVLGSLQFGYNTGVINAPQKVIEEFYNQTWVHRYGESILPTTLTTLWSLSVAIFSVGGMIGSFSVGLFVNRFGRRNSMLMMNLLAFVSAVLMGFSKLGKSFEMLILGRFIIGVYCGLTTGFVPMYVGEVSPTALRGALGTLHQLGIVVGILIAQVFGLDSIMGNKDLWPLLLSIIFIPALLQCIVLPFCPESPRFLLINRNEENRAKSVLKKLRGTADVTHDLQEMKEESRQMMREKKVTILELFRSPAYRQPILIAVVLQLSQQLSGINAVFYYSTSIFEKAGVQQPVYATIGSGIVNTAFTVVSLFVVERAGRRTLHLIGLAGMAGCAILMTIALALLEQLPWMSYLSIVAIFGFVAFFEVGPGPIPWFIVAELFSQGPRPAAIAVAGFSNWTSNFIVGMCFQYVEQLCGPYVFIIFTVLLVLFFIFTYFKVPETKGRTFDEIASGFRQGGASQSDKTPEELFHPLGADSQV
Assay type: cell-based

SMILES	3H-2-DG uptake in cRNA-injected Xenopus oocytes
OC[C@H]1OC(O)C[C@@H](O)[C@@H]1O (stereo partly drawn) [2-deoxy-D-glucose]	The hGLUT1 cRNA-injected oocytes were used as a positive control
